Experimental data: patent publication US11111247B2, “Pyrazolopyrimidine compounds and uses thereof” (Incyte Corporation, priority 2018, dated 2021)
Read-outs that look alike come from different tables or passages of the source.

How the values were obtained:
FGFR1 (UP) = FGFR1 (UP) (Homo sapiens (Human), UniProt P11362); experiment: FGFR Enzymatic Assay, FGFR1 un-phosphorylated
FGFR2 (P) = FGFR2 (P) (Homo sapiens (Human), UniProt P21802); experiment: FGFR Enzymatic Assay, FGFR2 phosphorylated; details: phosphorylated enzyme, ATP near or below Km
Procedure: (§1) The inhibitor potency of the exemplified compounds was determined in an enzyme discontinuous assay that measures peptide phosphorylation using FRET measurements to detect product formation. Inhibitors were serially diluted in DMSO and a volume of 0.2 μL was transferred to the wells of a 384-well plate. For the isoforms of FGFR (−1, −2, −3 wild-type and mutant isoforms, −4) including phosphorylated (P) and un-phosphorylated (UP) proteins, a 5 μL/well volume of enzyme diluted in assay buffer (50 mM HEPES, 10 mM MgCl2, 1 mM EGTA, 0.01% Tween-20, 5 mM DTT, pH 7.5) was added to the plate and pre-incubated with inhibitor for 5 to 15 minutes at ambient temperature. Appropriate controls (enzyme blank and enzyme with no inhibitor) were included on the plate. The reaction was initiated by the addition of a 5 μL/well volume containing both biotinylated [sequence] […] The plate was allowed to equilibrate for −10 minutes at ambient temperature before scanning on a PheraStar plate reader (BMG Labtech) instrument.
(§2) Either GraphPad prism or XLfit was used to analyze the data. The IC50 values were derived by fitting the data to a four parameter logistic equation producing a sigmoidal dose-response curve with a variable Hill coefficient. Prism equation: Y=Bottom+(Top−Bottom)/(1+10^((LogIC50−X)*Hill slope)); XLfit equation: Y=(A+((B−A)/(1+((X/C)^D)))) where X is the logarithm of inhibitor concentration and Y is the response.

FGFR3 = FGFR3 (Homo sapiens, UniProt P22607); experiment: pFGFR3 Functional Cell HTRF Assay (BAF3-TEL-FGFR3 cells); assay type: cell-based; details: 2 hours
Procedure: To measure phosphorylated Fibroblast Growth Factor Receptor 1 and 3 (FGF1 and FGFR3), in house stable cell lines BAF3-TEL-FGFR1 or BAF3-TEL-FGFR3 were maintained in RPMI with 10% FBS and 1 μg/ml puromycin (Gibco/Life Technologies). […] The plates were gently shaken (100 rpm) for 2 minutes at room temperature to mix well and incubated for 2 hours in a single layer at 37° C., 5% CO2. 4 μl/well of 1/25 dilution of lysis buffer #3 (Cis Bio) was added with standard Protease inhibitors and shaken at 200 rpm at room temperature for 20 minutes. 4 μl total of the Cis Bio Tb-pFGFR Ab (10 ng) and d2-FGFR3 (1 ng) together were added to the lysate and mixed well. Plates were sealed and incubated at room temperature overnight in the dark. […] IC50 determination was performed by fitting the curve of inhibitor percent inhibition versus the log of the inhibitor concentration using the GraphPad Prism 5.0 software.

ALK2 (aa 147-end) = ALK2 (aa 147-end) (Homo sapiens (Human), UniProt Q04771); experiment: ALK2 HTRF Assay; assay type: biochemical
FGFR3 (UP) = FGFR3 (UP) (Homo sapiens (Human), UniProt P22607); experiment: FGFR Enzymatic Assay, FGFR3 un-phosphorylated
Procedure: as §1, §2

ALK2 = ALK2 (Homo sapiens (Human), UniProt Q04771); experiment: ALK2 Cellular Assay (phospho SMAD1 HTRF, BMP-7 stimulated HeLa cells); assay type: cell-based; details: read-out: ALK2 Cellular Assay PSMAD
Summary of the method: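 HeLa cells pre-treated with compound (highest final 3 μM) for 60 min at 37° C, then stimulated with 200 ng/ml BMP-7 for 30 min. Phospho-SMAD1 (S463/S465) quantified by HTRF after overnight room-temperature incubation.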

FGFR2 (UP) = FGFR2 (UP) (Homo sapiens (Human), UniProt P21802); experiment: FGFR Enzymatic Assay, FGFR2 un-phosphorylated
Procedure: as §1, §2

RT112 cells = experiment: Luminescent Viability Assay (LVA, FGFR3); assay type: cell-based; details: Homo sapiens, RT-112, 72 h, 3 days, CellTiter-Glo
Procedure: RT112 cells were purchased from ATCC (Manassas, Va.) and maintained in RPMI, 10% FBS (Gibco/Life Technologies). To measure the effect of test compounds on the viability of cells, the cells were plated with RPMI 10% FBS (5×10^3 cells/well/in 50 μL) into black 96-well Greiner polystyrene in the presence or absence of 50 μl of a concentration range of test compounds. After 3 days, 100 μl of CellTiter-Glo Reagent (Promega) was added. Luminescence was read with a TopCount (PerkinElmer). IC50 determination was performed by fitting the curve of percent inhibition versus the log of the inhibitor concentration using the GraphPad Prism 5.0 software.

[1] = read-out: FGFR1 (UP) IC50, un-phosphorylated enzyme, ATP near or below Km
[2] = read-out: FGFR3 (UP) IC50, un-phosphorylated enzyme, ATP near or below Km
[3] = HeLa cells, 200 ng/ml BMP-7, Phospho SMAD1 (S463/S465) HTRF
[4] = read-out: ALK2 3 μM IC50, 3 uM ATP
[5] = read-out: ALK2 100 μM IC50, 100 uM ATP
[6] = read-out: ALK2 1 mM IC50, 1 mM ATP
[7] = read-out: FGFR2 (UP) IC50, un-phosphorylated enzyme, ATP near or below Km

ALK2 (aa 147-end), sequence (Q04771 147-509): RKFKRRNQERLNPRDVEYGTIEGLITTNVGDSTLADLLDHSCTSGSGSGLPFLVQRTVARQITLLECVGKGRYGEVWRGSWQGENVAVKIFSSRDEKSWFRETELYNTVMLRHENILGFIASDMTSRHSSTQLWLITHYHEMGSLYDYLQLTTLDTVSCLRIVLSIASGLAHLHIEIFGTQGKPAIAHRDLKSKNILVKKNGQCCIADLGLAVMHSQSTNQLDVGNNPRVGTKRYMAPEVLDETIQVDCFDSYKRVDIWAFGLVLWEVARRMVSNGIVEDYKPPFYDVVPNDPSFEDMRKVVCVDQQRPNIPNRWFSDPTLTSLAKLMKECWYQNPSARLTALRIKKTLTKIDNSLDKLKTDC
FGFR1 (UP), sequence (P11362 22-822): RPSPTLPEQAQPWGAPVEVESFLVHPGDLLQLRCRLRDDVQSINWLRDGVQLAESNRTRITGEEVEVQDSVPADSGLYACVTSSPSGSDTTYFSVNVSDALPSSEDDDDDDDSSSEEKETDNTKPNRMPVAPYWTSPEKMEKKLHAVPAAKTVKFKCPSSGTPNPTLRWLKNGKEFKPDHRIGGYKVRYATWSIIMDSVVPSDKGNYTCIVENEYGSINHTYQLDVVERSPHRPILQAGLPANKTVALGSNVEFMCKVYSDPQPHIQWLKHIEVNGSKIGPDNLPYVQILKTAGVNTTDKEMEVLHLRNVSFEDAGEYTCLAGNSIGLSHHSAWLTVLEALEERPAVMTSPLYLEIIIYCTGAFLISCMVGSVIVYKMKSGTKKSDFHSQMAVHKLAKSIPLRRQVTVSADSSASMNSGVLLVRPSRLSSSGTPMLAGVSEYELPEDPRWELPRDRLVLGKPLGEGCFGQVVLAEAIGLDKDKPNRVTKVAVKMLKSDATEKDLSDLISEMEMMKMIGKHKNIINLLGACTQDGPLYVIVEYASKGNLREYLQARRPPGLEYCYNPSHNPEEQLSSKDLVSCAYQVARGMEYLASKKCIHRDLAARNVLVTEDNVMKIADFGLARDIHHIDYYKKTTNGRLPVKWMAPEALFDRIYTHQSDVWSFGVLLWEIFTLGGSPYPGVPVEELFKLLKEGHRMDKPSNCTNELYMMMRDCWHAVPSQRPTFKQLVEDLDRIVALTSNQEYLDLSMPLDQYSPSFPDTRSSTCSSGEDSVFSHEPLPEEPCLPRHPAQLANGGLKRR
ALK2, sequence (Q04771 21-509): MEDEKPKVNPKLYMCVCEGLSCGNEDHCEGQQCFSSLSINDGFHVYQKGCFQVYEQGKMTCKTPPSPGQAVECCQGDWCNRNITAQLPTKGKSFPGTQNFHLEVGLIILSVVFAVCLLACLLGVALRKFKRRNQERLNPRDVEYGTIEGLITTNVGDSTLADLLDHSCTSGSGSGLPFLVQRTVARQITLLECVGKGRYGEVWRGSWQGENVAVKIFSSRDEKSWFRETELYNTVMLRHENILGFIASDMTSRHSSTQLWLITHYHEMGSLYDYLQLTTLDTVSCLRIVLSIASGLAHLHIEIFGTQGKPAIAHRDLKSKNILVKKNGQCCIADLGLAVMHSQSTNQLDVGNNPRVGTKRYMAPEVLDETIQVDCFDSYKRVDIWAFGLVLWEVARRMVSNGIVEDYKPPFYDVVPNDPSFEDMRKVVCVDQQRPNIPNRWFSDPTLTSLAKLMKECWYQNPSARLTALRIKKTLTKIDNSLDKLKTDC
FGFR2 (P), sequence (P21802 22-821): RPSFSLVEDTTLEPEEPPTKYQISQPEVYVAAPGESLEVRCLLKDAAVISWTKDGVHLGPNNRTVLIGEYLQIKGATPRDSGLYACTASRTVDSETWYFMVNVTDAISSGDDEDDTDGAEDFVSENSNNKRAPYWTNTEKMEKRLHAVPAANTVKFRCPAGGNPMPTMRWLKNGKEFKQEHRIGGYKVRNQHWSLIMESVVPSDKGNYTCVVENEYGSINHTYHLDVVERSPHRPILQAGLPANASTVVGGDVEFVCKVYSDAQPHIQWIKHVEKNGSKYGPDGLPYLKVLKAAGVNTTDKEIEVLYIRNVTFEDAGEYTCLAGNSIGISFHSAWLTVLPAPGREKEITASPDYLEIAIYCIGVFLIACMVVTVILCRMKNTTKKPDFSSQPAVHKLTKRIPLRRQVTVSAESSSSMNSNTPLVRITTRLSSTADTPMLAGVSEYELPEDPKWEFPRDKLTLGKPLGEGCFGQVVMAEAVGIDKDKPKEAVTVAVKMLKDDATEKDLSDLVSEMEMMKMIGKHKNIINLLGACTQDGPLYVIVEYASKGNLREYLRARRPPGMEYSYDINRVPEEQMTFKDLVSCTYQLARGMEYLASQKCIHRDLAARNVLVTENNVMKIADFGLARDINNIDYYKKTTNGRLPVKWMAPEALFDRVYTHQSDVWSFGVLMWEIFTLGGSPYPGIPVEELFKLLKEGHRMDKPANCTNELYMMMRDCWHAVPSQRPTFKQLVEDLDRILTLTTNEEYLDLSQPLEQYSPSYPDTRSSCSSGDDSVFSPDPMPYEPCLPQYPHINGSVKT
FGFR2 (UP), sequence (P21802 22-821): as above
FGFR3 (UP), sequence (P22607 23-806): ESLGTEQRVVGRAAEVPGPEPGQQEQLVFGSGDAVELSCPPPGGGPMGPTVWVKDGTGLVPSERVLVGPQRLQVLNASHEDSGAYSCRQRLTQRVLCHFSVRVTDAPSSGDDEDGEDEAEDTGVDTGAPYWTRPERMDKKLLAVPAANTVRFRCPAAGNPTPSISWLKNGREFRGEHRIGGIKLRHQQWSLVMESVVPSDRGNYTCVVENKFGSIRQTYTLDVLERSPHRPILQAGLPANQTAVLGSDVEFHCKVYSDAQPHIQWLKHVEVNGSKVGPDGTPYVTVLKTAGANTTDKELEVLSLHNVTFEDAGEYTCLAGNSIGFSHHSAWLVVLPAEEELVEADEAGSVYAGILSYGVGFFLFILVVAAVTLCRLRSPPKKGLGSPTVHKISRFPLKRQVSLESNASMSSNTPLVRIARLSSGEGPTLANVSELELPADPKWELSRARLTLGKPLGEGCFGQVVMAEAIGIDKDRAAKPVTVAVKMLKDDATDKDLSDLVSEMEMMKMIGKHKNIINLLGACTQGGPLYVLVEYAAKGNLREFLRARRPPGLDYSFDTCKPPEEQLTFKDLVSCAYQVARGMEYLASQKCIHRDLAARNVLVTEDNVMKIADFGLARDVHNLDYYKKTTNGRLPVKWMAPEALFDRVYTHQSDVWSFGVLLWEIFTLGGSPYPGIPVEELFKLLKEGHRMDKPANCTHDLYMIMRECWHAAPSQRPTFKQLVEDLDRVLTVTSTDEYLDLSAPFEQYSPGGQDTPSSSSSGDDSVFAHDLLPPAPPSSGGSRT
FGFR3, sequence (P22607 23-806 limits assumed): as the sequence (P22607 23-806) above

Row | SMILES | IC50 (FGFR1 (UP); [1]) [nM] | IC50 (FGFR2 (P); read-out: FGFR2 (P) IC50) [nM] | IC50 (FGFR3) [nM] | IC50 (ALK2 (aa 147-end); ALK2 3 μM IC50, 3 uM ATP) [nM] | IC50 (ALK2 (aa 147-end); ALK2 100 μM IC50, 100 uM ATP) [nM] | IC50 (FGFR3 (UP); [2]) [nM] | IC50 (FGFR1 (UP)) [nM] | IC50 (FGFR2 (P); FGFR2 (P) IC50 (nM)) [nM] | IC50 (ALK2; [3]) [nM] | IC50 (ALK2 (aa 147-end); ALK2 1 mM IC50, 1 mM ATP) [nM] | IC50 (ALK2 (aa 147-end); [4]) [nM] | IC50 (ALK2 (aa 147-end); [5]) [nM] | IC50 (FGFR2 (UP)) [nM] | IC50 (ALK2 (aa 147-end); [6]) [nM] | IC50 (FGFR3 (UP)) [nM] | IC50 (RT112 cells) [nM] | IC50 (FGFR2 (UP); [7]) [nM] | IC50 (ALK2) [nM]
1 | CNC(=O)c1ccc(-n2cc(-c3n[nH]c4cnc(N5C6CCC5C(=O)N(C)C6)nc34)cn2)cn1 (stereo not shown) [Example 82, N-Methyl-5-(4-(5-(3-methyl-2-oxo-3,8-diazabicyclo[3.2.1]octan-8-yl)-1H-pyrazolo[4,3-d]pyrimidin-3-yl)-1H-pyrazol-1-yl)picolinamide] | < 100 | < 100 | 100 to 500 | 500 to 2000 | 500 to 2000 | < 100 | – | – | – | – | – | – | – | – | – | – | – | –
2 | CN1CC2CCC(C1=O)N2c1ncc2[nH]nc(-c3cnn(CC(F)(F)F)c3)c2n1 (stereo not shown) [Example 67, 3-Methyl-8-(3-(1-(2,2,2-trifluoroethyl)-1H-pyrazol-4-yl)-1H-pyrazolo[4,3-d]pyrimidin-5-yl)-3,8-diazabicyclo[3.2.1]octan-2-one] | – | – | 100 to 500 | – | – | < 100 | 100 to 500 | 100 to 500 | – | – | – | – | – | – | – | – | – | –
3 | C[C@@H]1CN(c2ccc(-c3n[nH]c4cnc(N5CC6CCC5CN6C(=O)N5CCCC5)nc34)cn2)CCN1 (stereo partly drawn) [Example 20, (5-(3-(6-((R)-3-Methylpiperazin-1-yl)pyridin-3-yl)-1H-pyrazolo[4,3-d]pyrimidin-5-yl)-2,5-diazabicyclo[2.2.2]octan-2-yl)(pyrrolidin-1-yl)methanone] | – | – | – | – | – | > 2000 | 500 to 2000 | – | 100 to 500 | 100 to 500 | < 100 | < 100 | 500 to 2000 | – | – | – | – | –
4 | COC(=O)N1C[C@@H](C)N(c2ncc3[nH]nc(-c4ccc(N5CCN(C)[C@H](C)C5)nc4)c3n2)[C@@H](C)C1 [Example 33, Methyl (3R,5S)-4-(3-(6-((R)-3,4-dimethylpiperazin-1-yl)pyridin-3-yl)-1H-pyrazolo[4,3-d]pyrimidin-5-yl)-3,5-dimethylpiperazine-1-carboxylate] | – | – | – | – | – | < 100 | 100 to 500 | – | < 100 | – | < 100 | < 100 | 100 to 500 | < 100 | – | – | – | –
5 | C[C@@H]1CN(c2ccc(-c3n[nH]c4cnc(N5[C@H](C)CN(C(=O)OCCF)C[C@@H]5C)nc34)cn2)CCN1 [Example 12, 2-Fluoroethyl (3R,5S)-3,5-dimethyl-4-(3-(6-((R)-3-methylpiperazin-1-yl)pyridin-3-yl)-1H-pyrazolo[4,3-d]pyrimidin-5-yl)piperazine-1-carboxylate] | – | – | – | – | – | – | 500 to 2000 | – | < 100 | – | < 100 | < 100 | 100 to 500 | < 100 | 100 to 500 | – | – | –
6 | CNC(=O)c1ccc(-n2cc(-c3n[nH]c4cnc(N5C6CCC5C(=O)N(C)C6)nc34)cn2)cc1 (stereo not shown) [Example 80, N-Methyl-4-(4-(5-(3-methyl-2-oxo-3,8-diazabicyclo[3.2.1]octan-8-yl)-1H-pyrazolo[4,3-d]pyrimidin-3-yl)-1H-pyrazol-1-yl)benzamide] | < 100 | < 100 | – | – | – | < 100 | – | – | – | – | – | – | – | – | – | 500 to 2000 | < 100 | –
7 | CC(C)n1cc(-c2n[nH]c3cnc(N4C5CCC4C(=O)N(C)C5)nc23)cn1 (stereo not shown) [Example 62, 8-(3-(1-Isopropyl-1H-pyrazol-4-yl)-1H-pyrazolo[4,3-d]pyrimidin-5-yl)-3-methyl-3,8-diazabicyclo[3.2.1]octan-2-one] | – | < 100 | 100 to 500 | – | – | < 100 | 100 to 500 | – | – | – | – | – | – | – | – | 100 to 500 | – | –
8 | C[C@@H]1CN(c2ccc(-c3n[nH]c4cnc(N5[C@@H]6CC[C@H]5CN(C(=O)N5CCCC5)C6)nc34)cn2)CCN1 [Example 14, ((1R,5S)-8-(3-(6-((R)-3-Methylpiperazin-1-yl)pyridin-3-yl)-1H-pyrazolo[4,3-d]pyrimidin-5-yl)-3,8-diazabicyclo[3.2.1]octan-3-yl)(pyrrolidin-1-yl)methanone] | > 2000 | – | – | – | – | > 2000 | – | – | – | 100 to 500 | < 100 | < 100 | – | – | – | – | > 2000 | 100 to 500
9 | C[C@@H]1CN(c2ccc(-c3n[nH]c4cnc(N5C[C@@H]6C[C@H]5CN6C(=O)N5CCCC5)nc34)cn2)CCN1 [Example 21, ((1S,4S)-5-(3-(6-((R)-3-Methylpiperazin-1-yl)pyridin-3-yl)-1H-pyrazolo[4,3-d]pyrimidin-5-yl)-2,5-diazabicyclo[2.2.1]heptan-2-yl)(pyrrolidin-1-yl)methanone] | > 2000 | – | – | – | – | > 2000 | – | – | 500 to 2000 | 100 to 500 | < 100 | < 100 | – | – | – | – | > 2000 | –
10 | CN(C)C(=O)c1ccc(-n2cc(-c3n[nH]c4cnc(N5C6CCC5C(=O)N(C)C6)nc34)cn2)cc1 (stereo not shown) [Example 79, N,N-Dimethyl-4-(4-(5-(3-methyl-2-oxo-3,8-diazabicyclo[3.2.1]octan-8-yl)-1H-pyrazolo[4,3-d]pyrimidin-3-yl)-1H-pyrazol-1-yl)benzamide] | < 100 | < 100 | < 100 | 100 to 500 | 500 to 2000 | < 100 | – | – | – | – | – | – | – | – | – | – | < 100 | –
11 | CCOC(=O)N1C[C@@H](C)N(c2ncc3[nH]nc(-c4ccc(N5CCN[C@H](C)C5)nc4)c3n2)[C@@H](C)C1 [Example 11, Ethyl (3R,5S)-3,5-dimethyl-4-(3-(6-((R)-3-methylpiperazin-1-yl)pyridin-3-yl)-1H-pyrazolo[4,3-d]pyrimidin-5-yl)piperazine-1-carboxylate] | – | – | – | – | – | – | 500 to 2000 | – | 100 to 500 | – | < 100 | < 100 | 500 to 2000 | < 100 | 500 to 2000 | – | – | –
12 | COCC(=O)N1C[C@@H](C)N(c2ncc3[nH]nc(-c4ccc(N5CCN[C@H](C)C5)nc4)c3n2)[C@@H](C)C1 [Example 6, 1-((3R,5S)-3,5-Dimethyl-4-(3-(6-((R)-3-methylpiperazin-1-yl)pyridin-3-yl)-1H-pyrazolo[4,3-d]pyrimidin-5-yl)piperazin-1-yl)-2-methoxyethan-1-one] | > 2000 | – | – | – | – | – | – | – | 100 to 500 | – | < 100 | < 100 | 500 to 2000 | < 100 | 500 to 2000 | – | – | –
13 | CCn1cc(-c2n[nH]c3cnc(N4C5CCC4C(=O)N(C)C5)nc23)cn1 (stereo not shown) [Example 61, 8-(3-(1-Ethyl-1H-pyrazol-4-yl)-1H-pyrazolo[4,3-d]pyrimidin-5-yl)-3-methyl-3,8-diazabicyclo[3.2.1]octan-2-one] | – | < 100 | < 100 | 500 to 2000 | 500 to 2000 | < 100 | 100 to 500 | – | – | – | – | – | – | – | – | 100 to 500 | – | –
14 | C[C@@H]1CN(c2ccc(-c3n[nH]c4cnc(N5C6CCC5CC6)nc34)cn2)CCN1 [Example 3, 5-(7-Azabicyclo[2.2.1]heptan-7-yl)-3-(6-((R)-3-methylpiperazin-1-yl)pyridin-3-yl)-1H-pyrazolo[4,3-d]pyrimidine] | – | – | – | – | – | – | 500 to 2000 | – | 100 to 500 | 100 to 500 | < 100 | < 100 | 100 to 500 | – | 100 to 500 | – | – | –
15 | C[C@@H]1CN(c2ccc(-c3n[nH]c4cnc(N5[C@H](C)CN(C(=O)N6CCC(F)C6)C[C@@H]5C)nc34)cn2)CCN1 (stereo partly drawn) [Example 10, ((3R,5S)-3,5-Dimethyl-4-(3-(6-((R)-3-methylpiperazin-1-yl)pyridin-3-yl)-1H-pyrazolo[4,3-d]pyrimidin-5-yl)piperazin-1-yl)(3-fluoropyrrolidin-1-yl)methanone] | – | – | – | – | – | – | 500 to 2000 | – | < 100 | – | < 100 | < 100 | 500 to 2000 | < 100 | 500 to 2000 | – | – | –
